Legend:
[1] = Acute oral toxicity, male rats; conditions: rat, in vivo
male rats = assay: Acute inhalation toxicity, male rats (4 hours' exposure); format: in vivo
[2] = test system: flies of the species Musca domestica; assay: Percentage of flies lying on their backs after one hour, shaped pieces in a 40 m^3 room (Example 9); format: in vivo; conditions: shaped piece of Example 5 (Thio-DDVP) or 5a (DDVP)
Description: One shaped piece produced according to Example 5 and one shaped piece produced according to Example 5a were each pushed into a net-like quiver and suspended from the ceiling in the center of identical rooms of 40 m^3 cubic capacity. Immediately thereafter (0), and after 4, 8 and 12 weeks, 200 flies of the species Musca domestica were in each case exposed in the rooms. […] In each case, the percentage of animals which had fallen on their backs was determined 1 hour after exposing the flies.

warm-blooded animals = assay: Toxicity to warm-blooded animals compared to DDVP; format: in vivo
Musca domestica = assay: Aerosol test (knock-down of 50% of the animals, LT50); format: in vivo; conditions: comparison experiment, Example 1
Description: The following examples explain the invention in more detail, with "parts" denoting parts by weight.
Test animals: Musca domestica
To produce a suitable preparation of active compound, the active compound was mixed, at a range of concentrations, with the stated solvent.
A wire cage which contained about 25 test animals was suspended in the centre of a gas-tight glass chamber of size 1 m^3. After the chamber had been closed again, 2 ml of the preparation of active compound were atomised in the chamber. The condition of the test animals was constantly checked from outside, through the glass walls, and the time required for a knock-down effect on 50% of the animals was determined.
The active compounds, amounts used and time after which 50% of the animals were lying on their backs (LT50) can be seen from the table which follows: […]

[3] = age of the shaped pieces 0 weeks
[4] = age of the shaped pieces 4 weeks
[5] = age of the shaped pieces 8 weeks
[6] = age of the shaped pieces 12 weeks

## COP(=O)(OC)OC=C(Cl)Cl [DDVP, dimethyl-2,2-dichlorovinyl phosphate, reference compound]
[1]
  LD50: 62 mg/kg
Male rats
  LC50 male rats, acute inhalation toxicity: 340 mg/m^3
[2]; [3]
  percentage of animals lying on their backs after one hour: 80 percentage
[2]; [4]
  percentage of animals lying on their backs after one hour: 70 percentage
[2]; [5]
  percentage of animals lying on their backs after one hour: 60 percentage
[2]; [6]
  percentage of animals lying on their backs after one hour: 20 percentage

## COP(=S)(OC)OC=C(Cl)Cl [Thio-DDVP, dimethyl-2,2-dichlorovinyl thiophosphate]
warm-blooded animals
  toxicity to warm-blooded animals compared to DDVP: lower toxicity to warm-blooded animals
Musca domestica
  insecticidal action compared to DDVP: poorer insecticidal action
[1]
  LD50: 773 mg/kg
Male rats; 477 mg/m^3, maximum possible in the experiment
  tolerance of the maximum possible concentration, acute inhalation toxicity: tolerated without symptoms
Male rats
  LC50 male rats, acute inhalation toxicity: > 477 mg/m^3
[2]; [3]
  percentage of animals lying on their backs after one hour: 100 percentage
[2]; [4]
  percentage of animals lying on their backs after one hour: 95 percentage
[2]; [5]
  percentage of animals lying on their backs after one hour: 90 percentage
[2]; [6]
  percentage of animals lying on their backs after one hour: 50 percentage
